# In paper PMC9516332 (Frontiers in Oncology, 2022):
# Read-outs that look alike come from different tables or passages of the source.
# Tests used:
# Experiment in all cases: Kinase panel profiling at 1 µmol/L (MSA or IMAP), percentage inhibition
# Format in all cases: biochemical
# [1] = biological target: panel of 255 wild-type kinases (Homo sapiens, UniProt P54646); details: read-out: %-inhibition AMPKα2/β1/γ1
# [2] = biological target: T1, panel of 255 wild-type kinases (Homo sapiens, UniProt Q02156); details: read-out: %-inhibition at 1 µmol/L, PKCε
# T1 sequence (Q02156 1-737): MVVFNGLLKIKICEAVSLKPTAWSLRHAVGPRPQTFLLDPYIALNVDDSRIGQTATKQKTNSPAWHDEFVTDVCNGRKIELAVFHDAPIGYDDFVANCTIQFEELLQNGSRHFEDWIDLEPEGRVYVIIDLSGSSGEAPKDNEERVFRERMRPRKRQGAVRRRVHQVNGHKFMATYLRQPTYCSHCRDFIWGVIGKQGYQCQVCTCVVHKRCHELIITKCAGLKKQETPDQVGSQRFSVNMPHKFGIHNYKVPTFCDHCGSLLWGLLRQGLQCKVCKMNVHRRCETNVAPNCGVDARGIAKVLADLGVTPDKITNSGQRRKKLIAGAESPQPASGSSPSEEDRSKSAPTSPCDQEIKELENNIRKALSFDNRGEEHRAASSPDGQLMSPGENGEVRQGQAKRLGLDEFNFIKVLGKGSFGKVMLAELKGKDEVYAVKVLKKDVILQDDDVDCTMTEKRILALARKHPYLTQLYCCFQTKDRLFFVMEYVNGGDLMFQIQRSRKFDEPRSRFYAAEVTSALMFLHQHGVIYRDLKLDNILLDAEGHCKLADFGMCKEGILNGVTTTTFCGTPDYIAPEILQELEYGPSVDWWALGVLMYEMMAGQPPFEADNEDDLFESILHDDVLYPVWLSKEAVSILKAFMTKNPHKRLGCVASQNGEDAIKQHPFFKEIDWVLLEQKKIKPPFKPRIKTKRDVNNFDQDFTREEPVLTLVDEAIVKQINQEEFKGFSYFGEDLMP
# [3] = biological target: T2, panel of 255 wild-type kinases (Homo sapiens, UniProt P52333); details: read-out: %-inhibition at 1 µmol/L, JAK3
# T2 sequence (P52333 1-1124): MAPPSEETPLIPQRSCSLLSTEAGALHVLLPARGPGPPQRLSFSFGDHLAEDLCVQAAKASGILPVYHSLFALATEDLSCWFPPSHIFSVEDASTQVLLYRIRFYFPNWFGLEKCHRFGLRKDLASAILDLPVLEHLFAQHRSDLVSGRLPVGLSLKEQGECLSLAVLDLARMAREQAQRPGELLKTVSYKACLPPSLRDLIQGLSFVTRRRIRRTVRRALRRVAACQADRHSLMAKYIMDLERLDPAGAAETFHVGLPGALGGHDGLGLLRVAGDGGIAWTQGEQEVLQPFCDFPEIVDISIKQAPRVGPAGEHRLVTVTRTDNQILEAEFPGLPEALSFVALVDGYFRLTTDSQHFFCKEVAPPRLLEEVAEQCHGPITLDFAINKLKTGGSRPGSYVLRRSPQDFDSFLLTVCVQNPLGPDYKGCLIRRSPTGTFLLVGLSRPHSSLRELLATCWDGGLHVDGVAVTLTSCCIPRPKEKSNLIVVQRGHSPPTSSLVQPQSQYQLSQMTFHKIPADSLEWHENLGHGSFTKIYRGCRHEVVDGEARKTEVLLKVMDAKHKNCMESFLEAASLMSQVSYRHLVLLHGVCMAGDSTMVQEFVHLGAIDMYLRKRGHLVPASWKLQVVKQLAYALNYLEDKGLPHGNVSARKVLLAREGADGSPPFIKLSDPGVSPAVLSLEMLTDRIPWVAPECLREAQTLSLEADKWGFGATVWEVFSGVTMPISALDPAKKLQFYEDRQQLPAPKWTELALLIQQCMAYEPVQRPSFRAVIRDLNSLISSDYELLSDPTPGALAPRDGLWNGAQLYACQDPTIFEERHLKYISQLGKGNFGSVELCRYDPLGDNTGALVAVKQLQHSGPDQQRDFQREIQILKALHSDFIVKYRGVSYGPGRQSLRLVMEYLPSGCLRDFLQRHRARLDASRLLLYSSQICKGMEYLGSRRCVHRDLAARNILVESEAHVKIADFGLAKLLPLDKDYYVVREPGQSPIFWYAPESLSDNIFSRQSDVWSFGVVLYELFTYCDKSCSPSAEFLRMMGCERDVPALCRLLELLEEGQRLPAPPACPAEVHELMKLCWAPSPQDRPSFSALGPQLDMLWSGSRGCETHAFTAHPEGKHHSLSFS
# [4] = biological target: panel of 255 wild-type kinases (Homo sapiens, UniProt Q02763); details: read-out: %-inhibition at 1 µmol/L, TIE2
# [5] = biological target: T3, panel of 255 wild-type kinases (Homo sapiens, UniProt Q8NE63); details: read-out: %-inhibition at 1 µmol/L, HIPK4
# T3 sequence (Q8NE63 1-616): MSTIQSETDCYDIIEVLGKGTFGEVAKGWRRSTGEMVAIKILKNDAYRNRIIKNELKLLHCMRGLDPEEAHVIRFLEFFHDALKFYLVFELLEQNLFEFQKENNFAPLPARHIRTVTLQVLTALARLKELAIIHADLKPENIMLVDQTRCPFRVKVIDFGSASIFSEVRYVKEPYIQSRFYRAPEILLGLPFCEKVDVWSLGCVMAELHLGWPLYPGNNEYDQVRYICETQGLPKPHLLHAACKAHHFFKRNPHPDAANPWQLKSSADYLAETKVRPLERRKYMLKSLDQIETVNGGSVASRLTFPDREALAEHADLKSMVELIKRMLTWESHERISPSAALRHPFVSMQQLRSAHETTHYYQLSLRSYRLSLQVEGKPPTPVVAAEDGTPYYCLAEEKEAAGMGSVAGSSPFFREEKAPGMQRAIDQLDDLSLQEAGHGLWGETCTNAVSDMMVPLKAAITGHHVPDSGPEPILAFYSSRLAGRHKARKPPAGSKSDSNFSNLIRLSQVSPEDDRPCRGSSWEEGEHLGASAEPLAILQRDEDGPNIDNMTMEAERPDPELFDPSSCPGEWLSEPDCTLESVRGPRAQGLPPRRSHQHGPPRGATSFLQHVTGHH
# [6] = biological target: panel of 255 wild-type kinases (Homo sapiens, UniProt P10721); details: read-out: %-inhibition at 1 µmol/L, KIT
# [7] = AMPKα2/β1/γ1 kinase assay, 1 µmol/L single concentration
# [8] = kinase PKCε, 1 µmol/L single concentration
# [9] = kinase JAK3, 1 µmol/L single concentration
# [10] = kinase TIE2, 1 µmol/L single concentration
# [11] = kinase HIPK4, 1 µmol/L single concentration
# [12] = kinase KIT, 1 µmol/L single concentration
"inhibition at 1 µM [1, 7] [%]","inhibition at 1 µM [2, 8] [%]","inhibition at 1 µM [3, 9] [%]","inhibition at 1 µM [4, 10] [%]","inhibition at 1 µM [5, 11] [%]","inhibition at 1 µM [6, 12] [%]",Structure (SMILES),inhibition at 1 µM [1] [%],inhibition at 1 µM [2] [%],inhibition at 1 µM [3] [%],inhibition at 1 µM [4] [%],inhibition at 1 µM [5] [%],inhibition at 1 µM [6] [%]
-6,8,6,1.84,6,-5,O=C(Nc1cnn2ccc(N3CCC[C@@H]3c3cc(F)ccc3F)nc12)N1CC[C@H](O)C1 [larotrectinib],,,,,,
-3.67,11,-0.365,2.63,-3.77,-0.242,Cn1cnc2c(F)c(Nc3ccc(Br)cc3F)c(C(=O)NOCCO)cc21 [binimetinib],,,,,,
2.22,15,0.447,-0.712,64,5,Cc1nc(NC(=O)N2CCC[C@H]2C(N)=O)sc1-c1ccnc(C(C)(C)C(F)(F)F)c1 [alpelisib],,,,,,
1.9,0.617,6,-9,10,-2.4,Cn1cnc2c(F)c(Nc3ccc(Br)cc3Cl)c(C(=O)NOCCO)cc21 [selumetinib],,,,,,
-3,8,28,16,85,-10,COc1cc2ncnc(Nc3ccc(F)c(Cl)c3)c2cc1NC(=O)/C=C/CN1CCCCC1 [dacomitinib],,,,,,
83,0.425,96,5.49,44,83,CO[C@]1(C(=O)N[C@@H](C)c2ccc(-n3cc(F)cn3)nc2)CC[C@H](c2nc(C)cc(Nc3cc(C)[nH]n3)n2)CC1 [pralsetinib],,,,,,

# The remaining lines, values behind:
Structure (SMILES),"inhibition at 1 µM [1, 7] [%]","inhibition at 1 µM [2, 8] [%]","inhibition at 1 µM [3, 9] [%]","inhibition at 1 µM [4, 10] [%]","inhibition at 1 µM [5, 11] [%]","inhibition at 1 µM [6, 12] [%]",inhibition at 1 µM [1] [%],inhibition at 1 µM [2] [%],inhibition at 1 µM [3] [%],inhibition at 1 µM [4] [%],inhibition at 1 µM [5] [%],inhibition at 1 µM [6] [%]
COC(=O)N[C@@H](C)CNc1nccc(-c2cn(C(C)C)nc2-c2cc(Cl)cc(NS(C)(=O)=O)c2F)n1 [encorafenib],0.723,-7,2.28,6,59,-1.43,,,,,,
C[C@H](Nc1ncnc2nc[nH]c12)c1cc2cccc(Cl)c2c(=O)n1-c1ccccc1 [duvelisib],-0.155,13,3,-0.0949,5,-2.43,,,,,,
CCN1CCN(c2ccc(Nc3cc(N(C)C(=O)Nc4c(Cl)c(OC)cc(OC)c4Cl)ncn3)cc2)CC1 [infigratinib],-2,4.68,7,63,6,,,,,,,
CNC(=O)c1ccc(-c2cnc3ncc(Cc4ccc5ncccc5c4)n3n2)cc1F [capmatinib],,,,,,,-1.21,-19,3.32,-3.44,3.67,4
FC(F)(F)c1ccc(CNc2ccc(Cc3c[nH]c4ncc(Cl)cc34)cn2)cn1 [pexidartinib],-7,1.26,40,14,52,87,,,,,,
CCc1nc(C(N)=O)c(Nc2ccc(N3CCC(N4CCN(C)CC4)CC3)c(OC)c2)nc1NC1CCOCC1 [gilteritinib],21,27,91,41,99,71,,,,,,
CCn1c(=O)c(-c2cc(NC(=O)Nc3ccccc3)c(F)cc2Br)cc2cnc(NC)cc21 [ripretinib],-22,6,7,79,98,,,,,,,
CN1CCN(c2ccc(C(=O)Nc3n[nH]c4ccc(Cc5cc(F)cc(F)c5)cc34)c(NC3CCOCC3)c2)CC1 [entrectinib],79,27,97,72,14,21,,,,,,
COc1ccc(CN2C3CC2CN(c2ccc(-c4cc(OCC(C)(C)O)cn5ncc(C#N)c45)cn2)C3)cn1 [selpercatinib],28,7,27,43,21,54,,,,,,
Cc1cc(Nc2ncnc3ccc(NC4=NC(C)(C)CO4)cc23)ccc1Oc1ccn2ncnc2c1 [tucatinib],-1.44,-0.0549,4.65,-2.82,21,-1.27,,,,,,
C[C@H]1Oc2cc(cnc2N)-c2c(nn(C)c2C#N)CN(C)C(=O)c2ccc(F)cc21 [lorlatinib],2.22,10,6.62,17,2.62,4.22,,,,,,
CCN1C(=O)N(c2c(F)c(OC)cc(OC)c2F)Cc2cnc3[nH]c(CN4CCOCC4)cc3c21 [pemigatinib],-5,5,0.2,28,28,,,,,,,23
